Assay results taken from patent US20120165223A1 (priority 2006, published 2012).

Test system: azoreductase
Test: Fecal enzyme activity of flora of HFA mice: azoreductase
Type: in vivo, human intestinal normal bacterial flora
Experimental: For the one week, the feces were picked free from germs with the interval of two to three days. The feces collected at the day of colistin sulfate administration, 2nd, 4th, 7th, 10th, 13th, 17th and 20th days and at 3rd and 5th day after the stop of medication are put in an encapsulated tube and moved to an anaerobic chamber immediately and the activity of glucuomidase, glucosidase, nitrate reductase and azoreductase produced by the human intestinal normal bacterial flora is measured. As a result glucuronidase is decreased throughout the period of administration and the withdrawal period in comparison with control groups and is not recovered even at the 5th day since the medication is stopped. Glucosidase is increased during the medication period in comparison with the control groups. Nitrate reductase is increased in comparison with the control group at the start day of administration and the 2nd day of the medication but is recovered. Azoreductase is increased in comparison with the control group until the 7th day of medication and then decreased.

colistin sulfate
Azoreductase activity, recovery (5th day since the medication is stopped): not even recovered | Azoreductase activity in comparison with the control group (after the 7th day of medication): decreased | Azoreductase activity in comparison with the control group (until the 7th day of medication): increased
